Assay results published in article PMC10057445, “Interactions of N-Mannich Bases of Pyrrolo[3,4-c]pyrrole with Artificial Models of Cell Membranes and Plasma Proteins, Evaluation of Anti-Inflammatory and Antioxidant Activity” (Membranes, 2023).

Target: T1, human serum albumin (HSA) (Homo sapiens, UniProt P02768)
T1 construct: gene ALB; commercial powder (Sigma Aldrich), mature plasma protein
Test: intrinsic fluorescence quenching, ex […] nm
Format: binding
Settings: double-log; 297 K, pH 7.4 phosphate, no site marker

T1 sequence (P02768 25-609): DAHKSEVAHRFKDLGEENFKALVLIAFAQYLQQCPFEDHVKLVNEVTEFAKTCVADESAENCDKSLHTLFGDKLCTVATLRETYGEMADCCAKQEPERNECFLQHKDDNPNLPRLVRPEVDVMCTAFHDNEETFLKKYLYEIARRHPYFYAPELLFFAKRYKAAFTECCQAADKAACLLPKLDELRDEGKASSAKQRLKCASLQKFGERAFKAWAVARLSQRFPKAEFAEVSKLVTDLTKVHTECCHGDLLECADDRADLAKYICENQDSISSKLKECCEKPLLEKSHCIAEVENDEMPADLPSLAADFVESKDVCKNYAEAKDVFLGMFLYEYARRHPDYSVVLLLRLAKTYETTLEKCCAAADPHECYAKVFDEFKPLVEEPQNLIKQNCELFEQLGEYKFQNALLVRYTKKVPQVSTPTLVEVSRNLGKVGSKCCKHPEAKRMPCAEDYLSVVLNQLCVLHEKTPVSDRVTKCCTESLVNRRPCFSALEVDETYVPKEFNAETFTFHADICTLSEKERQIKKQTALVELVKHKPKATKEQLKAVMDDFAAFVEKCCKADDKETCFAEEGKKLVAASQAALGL

| SMILES | Binding / Kb × 10^3 [dm^3.mol^-1] |
| --- | --- |
| Cc1c2c(c(C)n1-c1ccccc1)C(=O)N(CN1CCN(c3ccccc3)CC1)C2=O [7a] | 9.12 × 10^3 dm^3·mol^-1 |
| Cc1c2c(c(C)n1-c1ccccc1)C(=O)N(CN1CCN(S(C)(=O)=O)CC1)C2=O [7l] | 1.66 × 10^3 dm^3·mol^-1 |
